The nature of data set [1]: plasma pharmacokinetics after oral and intravenous administration. The data set is classed as in vivo, Sprague-Dawley (SD) rats. The conditions noted are these: both, Sprague-Dawley, rat.
A short description of data set [2]: concentration in entorhinal cortex and hippocampus after oral administration. The data set is classed as in vivo, Sprague-Dawley (SD) rats.
Data set [3] can be described thus: cumulative excretion in bile, urine and feces. The data set is classed as in vivo, Sprague-Dawley (SD) rats. The settings on record: oral 100 mg/kg.
The next data set deals with CYP2D6 (Homo sapiens, UniProt P10635). The experiment in a line: metabolism in recombinant human CYP450 enzymes. The data set is classed as in vitro ADME. The conditions noted are these: DL0410 10 µM; recombinant CYP1A2, CYP2C9, CYP2D6, CYP3A4; 37°C, 2 h.
For another data set, the system named is AChE. The settings on record: read-out: IC50, inhibition of AChE; in vitro; cited from earlier work.
In another data set the test system is BChE. The conditions noted are these: read-out: IC50, inhibition of BChE; in vitro; cited from earlier work.
The next data set deals with APP/PS1 transgenic mice. The settings on record: cited from earlier work.
In data set [4] the test system is Aβ1-42-induced amnesia in mice. The conditions noted are these: cited from earlier work.

Each structure is given as a SMILES string.

The Tmax is the time from dosing to the highest level. In general, half-life refers to the time in which the quantity being followed falls by half. Broadly, the Cmax is the peak of the concentration-time curve. The term AUC(0-t) denotes the area under the concentration-time curve up to a stated or last time point. Low readings indicate low exposure, high ones high exposure. As usually defined, the IC50 is the concentration needed to halve the response being measured.

Chain of CYP2D6 (P10635 whole entry): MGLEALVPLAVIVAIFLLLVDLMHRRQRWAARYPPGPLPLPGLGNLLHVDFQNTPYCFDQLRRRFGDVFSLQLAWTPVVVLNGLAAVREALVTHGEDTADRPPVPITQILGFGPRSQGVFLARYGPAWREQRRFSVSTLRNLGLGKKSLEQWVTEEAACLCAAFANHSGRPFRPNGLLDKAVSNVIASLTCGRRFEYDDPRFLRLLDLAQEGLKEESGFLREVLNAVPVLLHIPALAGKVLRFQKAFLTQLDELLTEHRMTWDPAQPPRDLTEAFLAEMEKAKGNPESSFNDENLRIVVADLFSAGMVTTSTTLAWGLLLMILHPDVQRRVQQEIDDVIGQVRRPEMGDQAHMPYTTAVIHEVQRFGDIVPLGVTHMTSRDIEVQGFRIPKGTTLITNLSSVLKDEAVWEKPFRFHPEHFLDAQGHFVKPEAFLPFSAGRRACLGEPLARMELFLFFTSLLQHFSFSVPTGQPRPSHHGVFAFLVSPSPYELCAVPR

Turning to `Cl.Cl.O=C(CCN1CCCCC1)c1ccc(-c2ccc(C(=O)CCN3CCCCC3)cc2)cc1` [DL0410, 1,1′-([1,1′-biphenyl]-4,4′-diyl)bis(3-(piperidin-1-yl)propan-1-one) dihydrochloride], the Tmax in data set [1] was about 0.75 h; in data set [2] (both, Sprague-Dawley, rat, entorhinal cortex and hippocampus, po, 100 mg/kg) it was about 6 h. The half-life in data set [1] was 6.05 to 8.23 h. Moreover, the highest concentration (Cmax) stood at 21.5 ± 3.46 ng/mL in data set [1] (25 mg/kg); 56.1 ± 4.01 ng/mL in data set [1] (50 mg/kg); 196 ± 46.8 ng/mL in data set [1] (100 mg/kg); 46.2 ± 13.2 ng/mL in data set [2] (both, Sprague-Dawley, rat, entorhinal cortex, po, 100 mg/kg); 50.3 ± 6.92 ng/mL in data set [2] (both, Sprague-Dawley, rat, hippocampus, po, 100 mg/kg). Further, the AUC(0-t) in data set [1] (50 mg/kg) stood at 239 ± 63 ng·h/mL. In addition, the “crossing of the blood-brain barrier” value in data set [2] (rats, oral 100 mg/kg, detectable level in EC and HIP) was “able to cross the blood-brain barrier”. Besides, the “accumulated excretion in bile” value in data set [3] (rat bile, for 36 h) was 0.010 % of the dose. This molecule showed a cumulative fecal excretion in data set [3] (rat feces) of 34.71%. For the same molecule, the cumulative urinary excretion in data set [3] (rat urine, in 72 h) was 0.086 % of the dose. Besides, the “CYP450 isoform involved in the reduction reaction” value on CYP2D6 is on record as “CYP2D6 was identified to be involved in the reduction of the carbonyl group”. Further, the IC50 with AChE is 0.286 ± 0.004 µM; in the data set with BChE it was 3.96 ± 0.099 µM. The “improvement of memory deficits” value with APP/PS1 transgenic mice was “improve memory deficits in APP/PS1 transgenic mice”. Moreover, the “improvement of Aβ1-42-induced amnesia” value in data set [4] is recorded as “improve memory deficits”.

Source of the values: article PMC6625456 (Molecular Medicine Reports, 2019).
